{"source": "paper PMC3618599", "about": "(Clinical cancer research : an official journal of the …, 2013)", "key": {"[1]": {"assay": "Vorinostat, VG and VA serum pharmacokinetics", "format": "in vivo, human", "conditions": "for Change in Tmax, Cmax, and AUC0-8h: DSI schedule, day 1 or day 4, alvocidib escalated over 10–40 mg/m^2"}, "[2]": {"tested_on": "patients with relapsed, refractory, or poor prognosis acute leukemia, or RAEB-2", "assay": "Phase I 3+3 dose escalation: DLT and MTD of alvocidib combined with vorinostat", "format": "in vivo, human"}, "[3]": {"assay": "Alvocidib plasma pharmacokinetics", "format": "in vivo, human", "conditions": "for Overall mean CL of alvocidib: initial dose, geometric mean ± SD"}, "[4]": {"conditions": "cited from earlier work"}, "[5]": {"tested_on": "solid tumor patients", "conditions": "cited from earlier work"}, "[6]": {"conditions": "days 2 and 16, 28-day cycles, with vorinostat 800 mg"}, "[7]": {"conditions": "vorinostat 200 mg orally with alvocidib"}}}
{"compound": "O=C(O)CCC(=O)Nc1ccccc1", "note": "[VA, 4-anilino-4-oxobutanoic acid]", "values": [{"measurement": "Change in Tmax, Cmax, and AUC0-8h", "setting": "[1]", "value": "no change"}]}
{"compound": "O=C(CCCCCCC(=O)Nc1ccccc1)NO[C@@H]1O[C@H](C(=O)O)[C@@H](O)[C@H](O)[C@H]1O", "note": "[VG, vorinostat glucuronide]", "values": [{"measurement": "Change in Tmax, Cmax, and AUC0-8h", "setting": "[1]", "value": "no change"}, {"measurement": "AUC lower with 60 mg/m^2 compared to 40 mg/m^2 alvocidib dose", "setting": "[1]; WLMI schedule", "value": 50, "unit": "%"}, {"measurement": "Cmax lower with 60 mg/m^2 compared to 40 mg/m^2 alvocidib dose", "setting": "[1]; WLMI schedule", "value": 50, "unit": "%"}]}
{"compound": "CN1CC[C@H](c2c(O)cc(O)c3c(=O)cc(-c4ccccc4Cl)oc23)[C@H](O)C1", "note": "[alvocidib, flavopiridol]", "values": [{"measurement": "MTD, alvocidib maintenance infusion", "setting": "[2]; 4-h maintenance infusion, days 1 and 8 of 21-day cycle (WLMI), with vorinostat 200 mg orally TID days 1–14", "value": 20, "unit": "mg/m^2"}, {"measurement": "MTD, alvocidib loading infusion", "setting": "[2]; 30-min loading infusion, days 1 and 8 of 21-day cycle (WLMI), with vorinostat 200 mg orally TID days 1–14", "value": 20, "unit": "mg/m^2"}, {"measurement": "Plasma concentration immediately before dosing on days 4 or 8 (accumulation)", "setting": "[3]; daily and weekly infusion schedules, on average", "value": "< 1 % of the subsequent Cmax"}, {"measurement": "Mean CL of alvocidib", "setting": "[3]; day 4 dose, DSI schedule, after vorinostat 200 mg TID for 3 days", "value": "9.9 ± 5.4", "unit": "L/h/m^2"}, {"measurement": "Mean CL of alvocidib", "setting": "[3]; day 8 dose, WLMI schedule, after vorinostat 200 mg TID for 7 days", "value": "11.0 ± 3.9", "unit": "L/h/m^2"}, {"measurement": "Overall mean CL of alvocidib", "setting": "[3]; DSI schedule", "value": "13.0 ± 4.8", "unit": "L/h/m^2"}, {"measurement": "Overall mean CL of alvocidib", "setting": "[3]; WLMI schedule", "value": "12.2 ± 5.3", "unit": "L/h/m^2"}, {"measurement": "Binding to plasma proteins", "setting": "[4]", "value": "highly bound"}, {"measurement": "MTD, alvocidib given over 4 h", "setting": "[5]; [6]", "value": 30, "unit": "mg/m^2"}, {"measurement": "MTD, alvocidib initial 30 min infusion", "setting": "[5]; [6]", "value": 30, "unit": "mg/m^2"}]}
{"compound": "O=C(CCCCCCC(=O)Nc1ccccc1)NO", "note": "[vorinostat, Vorinostat]", "values": [{"measurement": "MTD for this regimen, vorinostat", "setting": "[2]; TID, with alvocidib WLMI 20/20 mg/m^2", "value": 200, "unit": "mg"}, {"measurement": "Change in Tmax, Cmax, and AUC0-8h", "setting": "[1]", "value": "no change"}, {"measurement": "Vorinostat AUC higher, WLMI compared to DSI schedule", "setting": "[1]; [7]", "value": "25–50%"}, {"measurement": "Vorinostat Cmax higher, WLMI compared to DSI schedule", "setting": "[1]; [7]", "value": "25–50%"}, {"measurement": "MTD, vorinostat", "setting": "[5]; days 1–3 and 15–17, 28-day cycles, with alvocidib WLMI", "value": 800, "unit": "mg"}]}
